Reference: patent US20160002141A1, “SYNTHESIS OF CALEBIN-A AND ITS BIOLOGICALLY ACTIVE ANALOGS” (priority 2014, published 2016)

Structure (SMILES): COc1cc(/C=C/C(=O)COC(=O)/C=C/c2ccc(O)c(OC)c2)ccc1O [Example 10a, Feruloylmethyl ferulate]
- melting point: 138 to 140 °C

Structure (SMILES): COc1cc(/C=C/C(=O)COC(=O)/C=C/c2ccc(O)cc2)ccc1O [Example 10b, Feruloylmethyl 4-hydroxycinnamate]
- melting point: 181.4 to 183.4 °C

Structure (SMILES): COc1cc(/C=C/C(=O)OCC(=O)/C=C/c2ccc(O)cc2)ccc1O [Example 10c, 4-Hydroxycinnamoylmethyl ferulate]
- melting point: 175.7 to 177.7 °C

Structure (SMILES): O=C(/C=C/c1ccc(O)cc1)COC(=O)/C=C/c1ccc(O)cc1 [Example 10d, 4-Hydroxycinnamoylmethyl 4-hydroxycinnamate]
- melting point: 289 to 291 °C
